These results are taken from patent US12458643B2, “Antidepressant/anxiolytic drug in which PAC1 receptor antagonist is used” (KAGOSHIMA UNIVERSITY, priority 2020, dated 2025).

What all share (format): in vivo, mouse
The subject of series [1] is normal mice. Kind of series: Spontaneous motor activity in normal mice (open field test). Particulars: i.p. PA-915 30 mg/kg, ketamine 20 mg/kg, fluoxetine 20 mg/kg, 30 min before vs 30 min after administration. The method, then: (1) The effects of PA-915, ketamine and the existing drug fluoxetine on normal mice were evaluated by an open field test (test to measure spontaneous locomotion in a novel environment by exploiting the properties of mice to do exploratory behavior in such a novel environment, and using a 45 cm×45 cm box of 30 cm in height).
Male C57BL/6J mice (8 to 12 weeks old) were placed in the box (illuminance: 100 lx) and allowed to freely explore the box for 60 minutes. Then, a vehicle (V: 10% DMSO solution; dissolved in saline; n=8), PA-915 (PA: 30 mg/kg; n=9), ketamine (K: 20 mg/kg; n=8) or fluoxetine (F: 20 mg/kg; n=11) was intraperitoneally administered thereto (0.1 mL/10 g). Spontaneous motor activity was measured by using the total distances traveled for 30 minutes before administration and for 30 minutes after administration as indexes. The data was indicated by mean±standard error. **P<0.01; *P<0.05 (Two-way ANOVA followed by Tukey-Kramer test).

Series [2] deals with normal mice. Kind of series: Radial maze test in normal mice. To be noted: i.p. PA-915 30 mg/kg, ketamine 20 mg/kg, 30 minutes later, Day 10. The method, then: (3) The effects of PA-915 and ketamine on normal mice were evaluated by a radial maze test (test to evaluate spatial working memory by exploiting the foraging behavior of mice, and using an apparatus having 40 cm long, 10 cm wide and 12 cm high arms radially arranged in 8 directions).
On Day 0, male C57BL/6J mice (8 weeks old) were acclimatized to the apparatus by free exploration for 10 minutes in the apparatus in a laboratory (illuminance: 200 lx). On Days 1 and 2, the mice were allowed to explore only correct arms baited with a reward (food pellets, 5 mg) for 10 minutes. On Days 3 to 9, the mice were allowed to explore all the arms for 5 minutes at maximum until the mice finished the reward while the ends of the correct arms were baited with the reward. On Day 10, a vehicle (V: 10% DMSO solution; dissolved in saline; n=10), PA-915 (PA: 30 mg/kg; n=10) or ketamine (K: 20 mg/kg; n=10) was intraperitoneally administered thereto (0.1 mL/10 g). The mice were allowed to freely explore the maze from 30 minutes later, and the number of entries to the arms without the reward (the number of errors) was measured. During the test period, the absence of marked change in the body weights of the mice by dietary restriction was confirmed. The data was indicated by mean±standard error. **P<0.01 (One-way ANOVA followed by Tukey-Kramer test).

Series [3] has as its system plasma corticosterone level. Kind of series: Repeated corticosterone administration, plasma corticosterone level (ELISA). Particulars: male mice, corticosterone 20 mg/kg s.c. 21 days; single i.p. PA-915 30 mg/kg, ketamine 20 mg/kg; next day. The method, then:
A vehicle (0.5% carboxymethylcellulose solution) or corticosterone (20 mg/kg) was subcutaneously administered (0.1 mL/10 g) to male C57BL/6J mice (7 weeks old) for 21 days. A vehicle (10% DMSO solution; dissolved in saline; n=4), PA-915 (30 mg/kg; n=4) or ketamine (20 mg/kg; n=4) was intraperitoneally administered thereto (0.1 mL/10 g) 3 hours after administration on the 21st day. On the next day, the mice were subjected to the forced swim test and then decapitated, and systemic circulating blood was collected. The plasma corticosterone level was measured using Corticosterone ELISA kit from Cayman Chemical Company. Mice given the vehicle by repeated administration without repeated corticosterone administration were used as a control (n=4). The data was indicated by mean±standard error. **P<0.01 (One-way ANOVA followed by Tukey-Kramer test).
(In general: An ELISA detects its analyte on a solid surface through an enzyme-linked reagent.)

Take `CNC1(c2ccccc2Cl)CCCCC1=O` (stereo not drawn) [ketamine]: the “change in spontaneous motor activity (total distance traveled)” value in the series with normal mice [1] is on record as “increase in spontaneous motor activity”. Further, the “influence on spatial working memory (number of errors, radial maze)” value in the series with normal mice [2] is listed as “decreased spatial cognitive function”. Further, the “effect on plasma corticosterone level” value in series [3] is “decreased the plasma corticosterone level”.
